Measurements reported in US9233167B2, “Oligomer-opioid agonist conjugates” (NEKTAR THERAPEUTICS, priority 2007, dated 2016).

Legend:
[1] = rats, 25 mg/kg intravenously, one hour after injection
[2] = molecular target: recombinant human kappa opioid receptor (Homo sapiens (Human), UniProt P41145); assay type: binding
Method: (§1) Using conventional receptor binding assay techniques, several molecules were assayed to determine binding activity at kappa, mu and delta opioid subtypes of opioid receptors.
(§2) Cells were plated in 24 well plates at a density of 0.2-0.3*10^6 cells/well and washed with assay buffer containing 50 mM Tris.HCl and 5 mM MgCl2 (pH 7.4). Competition binding assays were conducted in whole cells incubated with increasing concentrations of test compounds in the presence of appropriate concentration of radioligand. 0.5 nM ^3H Naloxone, 0.5 nM ^3H Diprenorphine and 0.5 nM ^3H DPDPE were used as the competing radioligands for mu, kappa and delta receptors respectively. Incubations were carried out for two hours at room temperature using triplicate wells at each concentration. At the end of the incubation, cells were washed with 50 mM Tris HCl (pH 8.0), solubilized with NaOH and bound radioactivity was measured using a scintillation counter.
(§3) Specific binding is determined by subtraction of the cpm bound in the presence of 50-100× excess of cold ligand. Binding data assays were analyzed using GraphPad Prism 4.0 and IC50 is generated by non-linear regression from dose-response curves.

[3] = molecular target: recombinant human mu opioid receptor (Homo sapiens (Human), UniProt P35372); assay type: binding
Method: as §1, §2, §3

[4] = molecular target: T1, recombinant human delta opioid receptor (Homo sapiens (Human), UniProt P41143); settings: Ki relative to nalbuphine
T1 sequence (P41143 whole entry, looked up): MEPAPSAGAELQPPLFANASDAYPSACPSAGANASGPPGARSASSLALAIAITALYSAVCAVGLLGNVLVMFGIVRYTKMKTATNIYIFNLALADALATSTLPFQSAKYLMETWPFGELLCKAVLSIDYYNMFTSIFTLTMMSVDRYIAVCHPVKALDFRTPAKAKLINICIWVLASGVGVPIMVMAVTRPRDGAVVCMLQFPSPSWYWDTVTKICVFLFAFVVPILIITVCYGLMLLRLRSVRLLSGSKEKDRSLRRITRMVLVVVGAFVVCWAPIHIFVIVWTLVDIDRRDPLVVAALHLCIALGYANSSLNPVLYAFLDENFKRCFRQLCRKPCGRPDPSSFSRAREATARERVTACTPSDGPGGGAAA
Method: as §1, §2, §3

[5] = molecular target: T1, recombinant human delta opioid receptor; settings: GTP-γS binding, up to 10 μM
Method: The reaction is initiated by 0.3 nM [^35S]GTPγS for an additional 30 minutes incubation period.

COCCOCCOCCO[C@H]1CC[C@@]2(O)[C@H]3Cc4ccc(O)c5c4[C@@]2(CCN3CC2CCC2)[C@H]1O5 [6-O-mPEG3-Nalbuphine, 6-O-mPEG3-nalbuphine]
brain:plasma ratio [1]: 0.23
Fold vs Nalbuphine at KAPPA [2]: 8.40
Fold vs Nalbuphine At MU [3]: 1.92
Fold vs Nalbuphine At DELTA [4]: 0.51
effect at the delta opioid receptor [5]: no effect
